Test results from ChEMBL document CHEMBL5344445, “Profiling the Linear Peptides of Venom from the Brazilian Scorpion Tityus serrulatus: Structural and Functional Characterization” (J Nat Prod, 2024).
Calls of active or inactive are those of the source. The rule behind the calls is not given here. Peptide text beside a SMILES is read from it.

Legend:
[1] = (§1) Hemolytic activity in Wistar rat RBC at 5 to 500 uM incubated for 120 mins; format: toxicity, cell-based, Erythrocyte; settings: Wistar, red blood cells (erythrocytes), dose 5-500 µM, read-out: Activity
[2] = Induction of Wistar rat mast cell degranulation assessed as beta-D-glusosaminidase release at 5 to 500 uM incubated for 15 mins relative to control; format: toxicity, cell-based; settings: 0.25 h, dose 5-500 µM
[3] = Induction of Wistar rat mast cell lysis assessed as LDH release at 5 to 500 uM incubated for 5 mins in presence of NADH relative to control; format: toxicity, cell-based; settings: dose 5-500 µM
Escherichia coli = test: Antibacterial activity against Escherichia coli; format: functional, organism-based
Klebsiella aerogenes = test: Antibacterial activity against Enterobacter aerogenes; format: functional, organism-based
Staphylococcus aureus = test: Antibacterial activity against Staphylococcus aureus; format: functional, organism-based
Streptococcus pneumoniae = test: Antibacterial activity against Streptococcus pneumoniae; format: functional, organism-based
[4] = Induction of edema formation in Swiss mouse at 2 ug, I.PL measured after 60 mins relative to control; format: toxicity; settings: in vivo, other, 1 h
[5] = Induction of edema formation in Swiss mouse at 2 ug, I.PL measured after 180 mins relative to control; format: toxicity; settings: in vivo, other, 3 h
[6] = Induction of edema formation in Swiss mouse at 2 ug, I.PL measured after 300 mins relative to control; format: toxicity; settings: in vivo, other, 5 h
[7] = Induction of nociception in Swiss mouse at 2 ug, I.PL incubated for 180 mins by von frey test relative to control; format: toxicity; settings: in vivo, other, 3 h
[8] = Induction of nociception in Swiss mouse at 2 ug, I.PL incubated for 60 mins by von frey test relative to control; format: toxicity; settings: in vivo, other, 1 h
[9] = Induction of nociception in Swiss mouse at 2 ug, I.PL incubated for 300 mins by von frey test relative to control; format: toxicity; settings: in vivo, other, 5 h
[10] = Effect on rearing activity in Swiss mouse assessed as increase in frequency at 2 ug, I.PL incubated for 3 to 15 mins by open field test relative to control; format: toxicity; settings: in vivo, other, time 3-15 min
[11] = Effect on locomotory activity in Swiss mouse assessed as decrease in frequency at 2 ug, I.PL incubated for 3 to 15 mins by open field test relative to control; format: toxicity; set-up: scale not given: the % may be the effect or the level left; settings: in vivo, other, time 3-15 min
Erythrocyte = test: as §1; format: toxicity, cell-based; settings: erythrocyte, 2 h, 500 µM, dose 5-500 µM

Row | Molecule | Activity [2] | Activity [3] | Activity (Escherichia coli) | Activity (Klebsiella aerogenes) | Activity (Staphylococcus aureus) | Activity (Streptococcus pneumoniae) | Activity ([4]; dose 2 µg) | Activity ([5]; dose 2 µg) | Activity ([6]; dose 2 µg) | Activity ([7]; dose 2 µg) | Activity ([8]; dose 2 µg) | Activity ([9]; dose 2 µg) | Activity ([10]; dose 2 µg) | Activity ([11]; dose 2 µg) | Activity (Erythrocyte) | Activity ([7]; at 2 µg) | Activity ([8]; at 2 µg) | Activity ([9]; at 2 µg) | Activity ([10]; at 2 µg) | Activity ([11]; at 2 µg) | further results
1 | H-IPEDIIKK-OH | <= 40% | <= 40% | inactive | inactive | inactive | inactive | Non-Toxic | Non-Toxic | Non-Toxic | Non-Toxic | Non-Toxic | Non-Toxic | Non-Toxic | Non-Toxic |  |  |  |  |  |  | hemolysis at 2 h, up to 500 µM [1]: ≤ 40%
2 | H-SESNTCG-OH | Non-Toxic | Non-Toxic | inactive | inactive | inactive | inactive | Non-Toxic | Non-Toxic | Non-Toxic |  |  |  |  | Non-Toxic | Non-Toxic | <= 40% | <= 40% | <= 40% | <= 40% |  | 
3 | H-GKGKEILGK-OH | Non-Toxic | Non-Toxic | inactive | inactive | inactive | inactive | Non-Toxic | Non-Toxic | Non-Toxic | Non-Toxic | Non-Toxic | Non-Toxic | Non-Toxic | Non-Toxic | Non-Toxic |  |  |  |  |  | 
4 | H-DEGPKSDCKP-OH | Non-Toxic | Non-Toxic | inactive | inactive | inactive | inactive |  |  |  |  |  |  |  | Non-Toxic |  | 71% | 71% | 71% | 41% |  | hemolysis at 2 h, up to 500 µM [1]: ≤ 40%; Activity ([4]; at 2 µg): 71%; Activity ([5]; at 2 µg): 71%; Activity ([6]; at 2 µg): 71%
5 | CC(C)C[C@H](NC(=O)CNC(=O)CNC(=O)[C@H](Cc1c[nH]cn1)NC(=O)[C@H](CC(=O)O)NC(=O)CNC(=O)[C@H](CO)NC(=O)[C@H](CC(C)C)NC(=O)[C@H](CC(C)C)NC(=O)[C@H](C)NC(=O)[C@H](CC(=O)O)NC(=O)[C@H](CS)NC(=O)CN)C(=O)N[C@@H](CC(C)C)C(=O)N[C@@H](CO)C(=O)N[C@@H](C)C(=O)N[C@@H](CC(N)=O)C(=O)NCC(=O)N[C@@H](CS)C(=O)O (H-GCDALLSGDHGGLLSANGC-OH) | Non-Toxic | Non-Toxic | inactive | inactive | inactive | inactive | Non-Toxic | Non-Toxic | Non-Toxic | Non-Toxic | Non-Toxic | Non-Toxic | Non-Toxic | Non-Toxic | Non-Toxic |  |  |  |  |  | 
6 | H-KETNAKPPA-OH | Non-Toxic | Non-Toxic | inactive | inactive | inactive | inactive | Non-Toxic | Non-Toxic | Non-Toxic |  |  |  |  |  | Non-Toxic | 71% | 41% | 71% | <= 40% | <= 40% | 
7 | H-ILPNDK-OH | Non-Toxic | Non-Toxic | inactive | inactive | inactive | inactive | Non-Toxic | Non-Toxic | Non-Toxic | Non-Toxic | Non-Toxic | Non-Toxic | Non-Toxic | Non-Toxic |  |  |  |  |  |  | hemolysis at 2 h, up to 500 µM [1]: ≤ 40%
8 | H-GLREKHVQ-OH | Non-Toxic | Non-Toxic | inactive | inactive | inactive | inactive | Non-Toxic | Non-Toxic | Non-Toxic | Non-Toxic | Non-Toxic | Non-Toxic | Non-Toxic |  | Non-Toxic |  |  |  |  | <= 40% | 
9 | H-KHFGKDSNFPF-NH2 | Non-Toxic | Non-Toxic | inactive | inactive | inactive | inactive | Non-Toxic | Non-Toxic | Non-Toxic | Non-Toxic | Non-Toxic | Non-Toxic | Non-Toxic |  | Non-Toxic |  |  |  |  | <= 40% | 
10 | H-ILTGKLKCK-OH | Non-Toxic | Non-Toxic | inactive | inactive | inactive | inactive |  | Non-Toxic | Non-Toxic |  |  |  | Non-Toxic | Non-Toxic | Non-Toxic | 41% | 41% | 41% |  |  | Activity ([4]; at 2 µg): 71%
11 | H-KPVEPVG-OH | Non-Toxic | Non-Toxic | inactive | inactive | inactive | inactive | Non-Toxic | Non-Toxic | Non-Toxic |  |  |  |  | Non-Toxic | Non-Toxic | <= 40% | <= 40% | <= 40% | 41% |  | 
12 | H-AEIDFSGIPEDIIKQI-OH | Non-Toxic | Non-Toxic | inactive | inactive | inactive | inactive | Non-Toxic | Non-Toxic | Non-Toxic |  |  |  |  |  | Non-Toxic | 71% | 71% | 71% | <= 40% | <= 40% | 
